Measurements as given in BigSolDB 2.1.

O=C1CCCC(=O)O1
solubility (mole fraction)
Conditions	in 1,2-dichloroethane	in DMAc	in DMF	in acetone	in acetonitrile	in dichloromethane	in ethyl acetate	in methyl acetate	in n-butyl acetate	in n-propyl acetate
278.15 K	0.448	0.73	0.549	0.444	0.591	0.425	0.107	0.294	0.12	0.234
283.15 K	0.555	0.789	0.594	0.524	0.648	0.51	0.156	0.384	0.145	0.301
288.15 K	0.631	0.83	0.663	0.623	0.705	0.597	0.206	0.444	0.181	0.407
293.15 K	0.7	0.852	0.705	0.676	0.764	0.641	0.273	0.551	0.246	0.505
298.15 K	0.773	0.877	0.74	0.76	0.809	0.709	0.383	0.646	0.322	0.592
303.15 K	0.807	0.905	0.795	0.815	0.844	0.78	0.506	0.7	0.451	0.712
308.15 K	0.866	0.923	0.822	0.884	0.879	0.824	0.618	0.808	0.582	0.817
313.15 K	0.922	0.935	0.87	0.918	0.918	0.896	0.75	0.874	0.736	0.908
